Earlier results in patent US20080254143A1, “COMPOSITION FOR IMPROVING IMMUNE SYSTEM HEALTH” (priority 2007, published 2008).

Columns and labels:
common cold [1] = settings: administered or recruited within 24 hrs of the onset of symptoms
common cold [2] = settings: daily supplementation, amounts greater than 100 mg
rhinovirus = settings: prevents formation of viral capsid proteins
TNF-α = settings: activated macrophages (LPS/IFN-gamma-activated RAW 264.7)

CC(=O)[O-].CC(=O)[O-].[Zn+2] [Zinc acetate]
duration and severity of symptoms of a common cold (common cold [1]): reduce the duration and overall severity

O=S(=O)([O-])[O-].[Zn+2] [Zinc sulphate]
duration and severity of symptoms of a common cold (common cold [1]): reduce the duration and overall severity

O=C1O[C@H]([C@@H](O)CO)C(O)=C1O [ascorbic acid, L-ascorbic acid]
incidence, severity and integrated morbidity of the common cold (common cold [2]): lowers the incidence, severity and integrated morbidity

[Zn] [zinc, Zinc]
in vitro replication of the rhinovirus (rhinovirus): inhibits in vitro replication
duration and severity of symptoms of a common cold (common cold [1]): reducing the duration and severity

Anthocyanins
TNF-α production (TNF-α): induce TNF-α production
